Laboratory results as given in patent US9561228B2 (Celgene Avilomics Research, Inc., priority 2013, dated 2017).

Experiments:
[1] = system: ERK1/2 phosphorylation of p90RSK in A375 cells; test: Detection of total and phosphor-RSK by MSD ELISA (A375); assay type: cell-based; conditions: Homo sapiens, A-375, read-out: ERK1/ERK2 PRSK A375 EC50
Method in brief: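 A375 cells serum-starved overnight in DMEM/0.1% FBS, then treated 2 h at 37° C with compound (1000× DMSO dilutions into medium). Lysates captured on RSK antibody-coated MSD plates; phospho-RSK (Ser380) and total RSK detected with SulfoTag secondary antibodies by electrochemiluminescence.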

Erk1 = molecular target: T1, Erk1 (Homo sapiens, UniProt P27361); test: Protein Mass Modification Assay (intact protein MALDI, 60 min, 10-fold excess of compound); assay type: binding
T1 construct: purchased Millipore 14-439
T1 sequence (P27361 whole entry): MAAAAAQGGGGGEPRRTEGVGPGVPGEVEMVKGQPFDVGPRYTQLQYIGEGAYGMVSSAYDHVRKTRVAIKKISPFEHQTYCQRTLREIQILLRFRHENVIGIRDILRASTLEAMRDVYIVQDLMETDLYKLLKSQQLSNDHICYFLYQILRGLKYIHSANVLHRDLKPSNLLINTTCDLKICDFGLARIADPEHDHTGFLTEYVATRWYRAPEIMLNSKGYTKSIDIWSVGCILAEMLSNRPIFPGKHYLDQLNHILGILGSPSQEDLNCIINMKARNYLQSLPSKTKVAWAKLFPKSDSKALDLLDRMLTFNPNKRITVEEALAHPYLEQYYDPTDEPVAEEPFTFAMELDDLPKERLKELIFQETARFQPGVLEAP
Method in brief: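 Human Erk1 was incubated 60 min at room temperature with a 10-fold molar excess of compound, then analysed as intact protein by MALDI with sinapinic acid matrix. The centroid mass shift versus untreated protein was divided by compound molecular weight to give percent modified protein.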

MEK1 activated ERK1 = molecular target: T2, MEK1 activated ERK1 (Homo sapiens, UniProt P27361); test: Omnia continuous-read kinase assay for potency against MEK1 activated ERK1; assay type: biochemical; conditions: ATP at KM, WT
T2 construct: purchased Millipore (Billerica, Mass.) 14-439-K
T2 sequence (P27361 whole entry): as above
Method in brief: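 Apparent IC50 came from initial reaction slopes (RFU vs time) plotted against log inhibitor with a variable-slope fit. Reactions were started with ERK1 (4 nM final) added to 50 μM ATP, roughly at its appKM, and 10 μM Sox-conjugated ST17 peptide in 20 mM Tris pH 7.5, 5 mM MgCl2. Fluorescence was monitored every 71 seconds.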

Structure (SMILES)	EC50 [1] [nM]	ERK1 Mass Mod (%) (Erk1)	IC50 (MEK1 activated ERK1) [nM]
C=CC(=O)Nc1cc(CN2CCN(C(=O)CO)CC2)ccc1Nc1nc(Nc2nc(OC)ncc2C)ncc1C(F)(F)F [Compound I-386, N-(5-((4-(2-hydroxyacetyl)piperazin-1-yl)methyl)-2-((2-((2-methoxy-5-methylpyrimidin-4-yl)amino)-5-(trifluoromethyl)pyrimidin-4-yl)amino)phenyl)acrylamide]	> 1000	E (a mass modification of ≧70%)	501 to 999
C=CC(=O)Nc1cc(CN2CCN(C(=O)c3cccnc3)CC2)ccc1Nc1nc(Nc2nc(OC)ncc2C)ncc1C(F)(F)F [Compound I-392, N-(2-((2-((2-methoxy-5-methylpyrimidin-4-yl)amino)-5-(trifluoromethyl)pyrimidin-4-yl)amino)-5-((4-nicotinoylpiperazin-1-yl)methyl)phenyl)acrylamide]	> 1000	E (a mass modification of ≧70%)	101 to 500
C=CC(=O)Nc1cc(CN2CCN(C(=O)c3cnccn3)CC2)ccc1Nc1nc(Nc2nc(OC)ncc2C)ncc1C(F)(F)F [Compound I-393, N-(2-((2-((2-methoxy-5-methylpyrimidin-4-yl)amino)-5-(trifluoromethyl)pyrimidin-4-yl)amino)-5-((4-(pyrazine-2-carbonyl)piperazin-1-yl)methyl)phenyl)acrylamide]	> 1000	E (a mass modification of ≧70%)	501 to 999
C=CC(=O)Nc1cc(CN2CCN(C)CC2)ccc1Nc1nc(Nc2nc(OC)ncc2C)ncc1C(F)(F)F [Compound I-394, N-(2-((2-((2-methoxy-5-methylpyrimidin-4-yl)amino)-5-(trifluoromethyl)pyrimidin-4-yl)amino)-5-((4-methylpiperazin-1-yl)methyl)phenyl)acrylamide]	> 1000	E (a mass modification of ≧70%)	101 to 500
C=CC(=O)Nc1ccc(OCC(N)=O)cc1Nc1nc(NC2CCOCC2)ncc1C(F)(F)F [Compound I-395, N-(4-(2-amino-2-oxoethoxy)-2-((2-((tetrahydro-2H-pyran-4-yl)amino)-5-(trifluoromethyl)pyrimidin-4-yl)amino)phenyl)acrylamide]	> 1000	E (a mass modification of ≧70%)	> 1000
C=CC(=O)Nc1cc(C)c(C#N)cc1Nc1nc(NC2CCOCC2)ncc1C(F)(F)F [Compound I-397, N-(4-cyano-5-methyl-2-((2-((tetrahydro-2H-pyran-4-yl)amino)-5-(trifluoromethyl)pyrimidin-4-yl)amino)phenyl)acrylamide]	501 to 999	F (a mass modification of 31-69%)	> 1000
C=CC(=O)Nc1cc(CN2CCOCC2)ccc1Nc1nc(Nc2cc(OC)ncc2C)ncc1C(F)(F)F [Compound I-399, N-(2-((2-((2-methoxy-5-methylpyridin-4-yl)amino)-5-(trifluoromethyl)pyrimidin-4-yl)amino)-5-(morpholinomethyl)phenyl)acrylamide]	501 to 999	E (a mass modification of ≧70%)	101 to 500
C=CC(=O)Nc1cc(C(=O)N2CCN(S(C)(=O)=O)CC2)ccc1Nc1nc(Nc2cc(OC)ncc2C)ncc1C(F)(F)F [Compound I-401, N-(2-((2-((2-methoxy-5-methylpyridin-4-yl)amino)-5-(trifluoromethyl)pyrimidin-4-yl)amino)-5-(4-(methylsulfonyl)piperazine-1-carbonyl)phenyl)acrylamide]	101 to 500	E (a mass modification of ≧70%)	101 to 500
C=CC(=O)Nc1cc(C)ccc1Nc1nc(Nc2cc(OC)ncc2C(F)F)ncc1C(F)(F)F [Compound I-431, N-(2-((2-((5-(difluoromethyl)-2-methoxypyridin-4-yl)amino)-5-(trifluoromethyl)pyrimidin-4-yl)amino)-5-methylphenyl)acrylamide]	101 to 500	E (a mass modification of ≧70%)	501 to 999

Next, values leading:

EC50 [1] [nM]	ERK1 Mass Mod (%) (Erk1)	IC50 (MEK1 activated ERK1) [nM]	Structure (SMILES)
101 to 500	E (a mass modification of ≧70%)	101 to 500	C=CC(=O)Nc1cc(OCC(N)=O)ccc1Nc1nc(NC2CCOCC2)ncc1C(F)(F)F [Compound I-387, N-(5-(2-amino-2-oxoethoxy)-2-((2-((tetrahydro-2H-pyran-4-yl)amino)-5-(trifluoromethyl)pyrimidin-4-yl)amino)phenyl)acrylamide]
< 100	E (a mass modification of ≧70%)	< 100	C=CC(=O)Nc1cc(CN2CCN(C(=O)c3cccnc3)CC2)ccc1Nc1nc(Nc2cc(OC)ncc2C)ncc1C(F)(F)F [Compound I-389, N-(2-((2-((2-methoxy-5-methylpyridin-4-yl)amino)-5-(trifluoromethyl)pyrimidin-4-yl)amino)-5-((4-nicotinoylpiperazin-1-yl)methyl)phenyl)acrylamide]
< 100	E (a mass modification of ≧70%)	< 100	C=CC(=O)Nc1cc(CN2CCN(C(=O)c3cnccn3)CC2)ccc1Nc1nc(Nc2cc(OC)ncc2C)ncc1C(F)(F)F [Compound I-390, N-(2-((2-((2-methoxy-5-methylpyridin-4-yl)amino)-5-(trifluoromethyl)pyrimidin-4-yl)amino)-5-((4-(pyrazine-2-carbonyl)piperazin-1-yl)methyl)phenyl)acrylamide]
101 to 500	E (a mass modification of ≧70%)	< 100	C=CC(=O)Nc1cc(OCCN)ccc1Nc1nc(Nc2cc(OC)ncc2C)ncc1C(F)(F)F [Compound I-396, N-(5-(2-aminoethoxy)-2-((2-((2-methoxy-5-methylpyridin-4-yl)amino)-5-(trifluoromethyl)pyrimidin-4-yl)amino)phenyl)acrylamide]
< 100	E (a mass modification of ≧70%)	< 100	C=CC(=O)Nc1cc(OCC(N)=O)ccc1Nc1nc(Nc2cc(OC)ncc2C)ncc1C(F)(F)F [Compound I-398, N-(5-(2-amino-2-oxoethoxy)-2-((2-((2-methoxy-5-methylpyridin-4-yl)amino)-5-(trifluoromethyl)pyrimidin-4-yl)amino)phenyl)acrylamide]
< 100	E (a mass modification of ≧70%)	< 100	C=CC(=O)Nc1cc(CCC(N)=O)ccc1Nc1nc(Nc2cc(OC)ncc2C)ncc1C(F)(F)F [Compound I-400, N-(5-(3-amino-3-oxopropyl)-2-((2-((2-methoxy-5-methylpyridin-4-yl)amino)-5-(trifluoromethyl)pyrimidin-4-yl)amino)phenyl)acrylamide]
